Key:
ECF-FolT2 [1] = molecular target: T1, ECF-FolT2 (Lactobacillus delbrueckii, UniProt Q1G929+Q1GBI9+Q1GBJ0); assay: cryo-EM structure, […] Å; type: binding; settings: lipid nanodiscs
T1 construct: gene ecfA1; full complex EcfA-EcfA'-EcfT-FolT2, ~115 kDa; N-terminal His10-TEV tag, C-terminal StrepII tag on FolT2; expressed in E. coli MC1061; MSP2N2 lipid nanodiscs; with Energy-coupling factor transporter transmembrane protein EcfT

solitary ECF module = molecular target: T2, solitary ECF module (Lactobacillus delbrueckii, UniProt Q1GBI9+Q1GBJ0); assay: cryo-EM structure, […] Å; type: binding; settings: Mg-ATP in both nucleotide sites, closed ATPase dimer; lipid nanodiscs; catalytically inactive double mutant 2EQcryo
T2 construct: gene ecfA1; EcfA-EcfA'-EcfT without S-component, ~92 kDa; N-terminal His10-TEV tag removed; expressed in E. coli MC1061; MSP2N2 lipid nanodiscs; with Energy-coupling factor transporter transmembrane protein EcfT
T2 sequence (Q1GBI8 entry or part of it, one chain of several, further chain): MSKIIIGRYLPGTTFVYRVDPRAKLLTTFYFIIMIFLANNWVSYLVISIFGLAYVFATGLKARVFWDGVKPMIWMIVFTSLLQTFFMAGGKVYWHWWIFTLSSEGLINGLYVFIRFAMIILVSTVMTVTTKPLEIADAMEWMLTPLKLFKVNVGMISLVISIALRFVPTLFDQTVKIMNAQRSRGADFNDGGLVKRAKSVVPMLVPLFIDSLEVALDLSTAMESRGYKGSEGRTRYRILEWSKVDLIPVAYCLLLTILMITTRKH

[2] = molecular target: T3, solitary ECF module co-reconstituted with solitary FolT1 (Lactobacillus delbrueckii, UniProt Q1G930); assay: radiolabelled folate uptake into proteoliposomes; type: biochemical; settings: 100 nM folate, 5 mM lumenal Mg-ATP, 50 mM KPi pH 7.5, 30 °C; labelled compound
T3 construct: gene Ldb1624; FolT1 with N-terminal His8 tag from L. lactis NZ9000; ECF module from E. coli, tag removed by TEV; co-reconstituted into proteoliposomes; Energy-coupling factor transporter transmembrane protein EcfT
T3 sequence (Q1GBI8 entry or part of it, one chain of several): as the sequence (Q1GBI8 entry or part of it, one chain of several, further chain) above
T3 sequence (Q1GBJ0 whole entry, one chain of several, further chain): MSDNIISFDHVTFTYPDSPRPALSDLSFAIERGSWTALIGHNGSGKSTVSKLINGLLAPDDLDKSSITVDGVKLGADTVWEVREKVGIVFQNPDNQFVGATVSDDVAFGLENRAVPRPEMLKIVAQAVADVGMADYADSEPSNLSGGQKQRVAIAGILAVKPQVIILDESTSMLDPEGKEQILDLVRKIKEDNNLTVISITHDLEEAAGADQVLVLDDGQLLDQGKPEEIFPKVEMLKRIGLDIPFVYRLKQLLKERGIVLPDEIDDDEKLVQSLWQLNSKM
T3 sequence (Q1G930 entry or part of it, one chain of several): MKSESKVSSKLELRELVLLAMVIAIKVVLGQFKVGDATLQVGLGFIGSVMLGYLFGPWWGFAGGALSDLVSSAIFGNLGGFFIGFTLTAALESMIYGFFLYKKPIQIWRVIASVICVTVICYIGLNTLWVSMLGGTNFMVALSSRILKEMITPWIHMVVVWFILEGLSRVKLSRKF

ECF-FolT2 [3] = molecular target: T1, ECF-FolT2; assay: cryo-EM structure, […] Å; type: binding; settings: 5 mM Mg-AMP-PNP, 10 µM folate, 37 °C; both nucleotide sites; lipid nanodiscs
[4] = substrate: Nc1ncnc2c1ncn2[C@@H]1O[C@H](COP(=O)(O)OP(=O)(O)OP(=O)(O)O)[C@@H](O)[C@H]1O; assay: enzyme-coupled (PK/LDH) spectrophotometric ATPase assay; type: biochemical, Lactobacillus delbrueckii; settings: Mg-ATP 0-0.5 mM, 20 mM Tris pH 8.0, 150 mM NaCl, 37 °C, lipid nanodiscs

T1 sequence (Q1GBI8 entry or part of it, one chain of several, further chain): as the sequence (Q1GBI8 entry or part of it, one chain of several, further chain) above
T1 sequence (Q1G929 entry or part of it, one chain of several): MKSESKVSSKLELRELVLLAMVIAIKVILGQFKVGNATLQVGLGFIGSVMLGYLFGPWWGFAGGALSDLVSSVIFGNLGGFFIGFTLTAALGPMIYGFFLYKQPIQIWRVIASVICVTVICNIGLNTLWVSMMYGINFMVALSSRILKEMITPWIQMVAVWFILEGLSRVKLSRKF

Molecule: Nc1ncnc2c1ncn2[C@@H]1O[C@H](COP(=O)(O)OP(=O)(O)OP(=O)(O)O)[C@@H](O)[C@H]1O [ATP]
- cryo-EM structure, 3.2 Å (ECF-FolT2 [1]; 5 mM Mg-ATP, 10 µM folate, 37 °C, site in EcfA, adenine between EcfA Phe13 and FolT2 Arg174): ATP and ADP bound to the EcfA and EcfA’ subunits, respectively
- cryo-EM structure, 2.6 Å (solitary ECF module): In both ATPase subunits, Mg-ATP is now bound and engaged with the signature motif

Molecule: Nc1nc2ncc(CNc3ccc(C(=O)N[C@@H](CCC(=O)O)C(=O)O)cc3)nc2c(=O)[nH]1 [folate]
- radiolabelled folate uptake into proteoliposomes [2]: Uptake of folate into the proteoliposome lumen only occurred in the presence of lumenal Mg-ATP

Molecule: Nc1ncnc2c1ncn2[C@@H]1O[C@H](COP(=O)(O)OP(=O)(O)O)[C@@H](O)[C@H]1O [ADP]
- cryo-EM structure, 3.2 Å (ECF-FolT2 [1]; 5 mM Mg-ATP added, site in EcfA'): ADP is bound exclusively by residues from the EcfA’ subunit

Molecule: Nc1ncnc2c1ncn2[C@@H]1O[C@H](COP(=O)(O)OP(=O)(O)NP(=O)(O)O)[C@@H](O)[C@H]1O [AMP-PNP]
- cryo-EM structure, 3.6 Å (ECF-FolT2 [3]): with AMP-PNP bound to both nucleotide-binding sites

B1: solitary ECF module (Lactobacillus delbrueckii subsp. bulgaricus ATCC 11842 = JCM 1002) (protein)
chain 1: SDNIISFDHVTFTYPDSPRPALSDLSFAIERGSWTALIGHNGSGKSTVSKLINGLLAPDDLDKSSITVDGVKLGADTVWEVREKVGIVFQNPDNQFVGATVSDDVAFGLENRAVPRPEMLKIVAQAVADVGMADYADSEPSNLSGGQKQRVAIAGILAVKPQVIILDESTSMLDPEGKEQILDLVRKIKEDNNLTVISITHDLEEAAGADQVLVLDDGQLLDQGKPEEIFPKVEMLKRIGLDIPFVYRLKQLLKERGIVLPDEIDDDEKLVQSLWQLNSKM
chain 2: MAIKFENVSYVYSPGSPLEAIGLDQLNFSLEEGKFIALVGHTGSGKSTLMQHFNALLKPTSGKIEIAGYTITPETGNKGLKDLRRKVSLAFQFSEAQLFENTVLKDVEYGPRNFGFSEDEAREAALKWLKKVGLKDDLIEHSPFDLSGGQMRRVALAGVLAYEPEIICLDEPAAGLDPMGRLEMMQLFKDYQAAGHTVILVTHNMDDVADYADDVLALEHGRLIKHASPKEVFKDSEWLQKHHLAEPRSARFAAKLEAAGLKLPGQPLTMPELADAIKQSLKGGEHE
notes: EcfA-EcfA'-EcfT without S-component, ~92 kDa; N-terminal His10-TEV tag removed; expressed in E. coli MC1061; MSP2N2 lipid nanodiscs; with Energy-coupling factor transporter transmembrane protein EcfT
- Km [4]: 136.2 µM
